# Test results from article PMC2809336, “Antidepressant Interactions with the NMDA NR1-1b Subunit” (Journal of Biophysics, 2008).
# “Also recorded” adds a separate entry of the source.
# What was measured:
# Assay type in all cases: binding
# NMDA NR1-1b S1S2 domain [1] = biological target: T1, NMDA NR1-1b S1S2 domain (Rattus norvegicus, UniProt P35439); experiment: Intrinsic tryptophan fluorescence quenching and λ max of emission; settings: for Binding to NR1-1b S1S2 by intrinsic tryptophan fluorescence: desipramine, trimipramine, imipramine 137 μM, maprotiline 3.18 mM, nortriptyline 2.08 mM, paroxetine 3.75 mM, sertraline 1.88 mM, fluvoxamine 2.81 mM; for λ max of the NR1-1b drug bound complex: excitation 290 nm, 25°C, apo 326.24 nm, drug at final quenching concentration; for Binding to NR1-1b S1S2 in intrinsic and extrinsic fluorescence assays: concentrations as high as 5.21 mM
# T1 construct: (His)8-TSG-LVPRG(thrombin cut site)-S1(394-544)-GT-S2(663-800); (His)8-TSG-LVPRG (His8 tag with thrombin cut site) (N); made in house; host or cells: E. coli Origami B(DE3)
# T1 sequence (P35439 394-544): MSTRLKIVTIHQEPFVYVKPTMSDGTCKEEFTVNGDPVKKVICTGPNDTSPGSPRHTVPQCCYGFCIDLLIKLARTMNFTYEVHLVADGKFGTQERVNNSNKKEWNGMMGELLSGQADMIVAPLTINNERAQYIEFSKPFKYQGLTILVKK
# T1 sequence (P35439 663-800): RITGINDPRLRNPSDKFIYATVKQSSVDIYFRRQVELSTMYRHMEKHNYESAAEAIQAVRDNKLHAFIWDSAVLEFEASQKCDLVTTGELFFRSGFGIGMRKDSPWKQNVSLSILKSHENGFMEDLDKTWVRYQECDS
# Procedure: (§1) Intrinsic fluorescence studies were performed in a Cary Eclipse fluorometer at 25°C. All emission scans were acquired from 300 to 400 nm upon excitation at 290 nm, with 10 nm excitation and emission slit widths in a 10 mm-path-length cell. Excitation was performed at 290 nm to minimize interference from both tyrosine residues in the NMDA NR1-1b S1S2 domain as well as the aromatic antidepressants being studied. Before data acquisition, samples were incubated for thirty seconds in the sample holder at 25°C. […] Thus, data was reported without a buffer subtraction.
# (§2) All antidepressants were solubilized in 100% methanol to the highest attainable concentrations. To account for any effects methanol had on fluorescence intensity, protein spectra with methanol were collected, allowing direct comparison between samples with and without antidepressant. Each data set consisted of at least three independent emission spectra of identically prepared samples. The data is reported with error determined at the 95% confidence level.
# The fluorescence intensity of the NR1-1b S1S2 domain was determined in the presence and absence of eachantidepressant with the appropriate blank subtraction. […] For all samples, the final concentration of methanol was kept at 1.8%.
# NMDA NR1-1b S1S2 domain [2] = biological target: T1, NMDA NR1-1b S1S2 domain; experiment: Stern-Volmer analysis, acrylamide quenching of tryptophan fluorescence; settings: acrylamide 16.3 to 113.9 mM, 5.29 μM NR1-1b S1S2 premixed with antidepressant; apo 1.61
# Text: Plots of (F 0/F) −1 versus acrylamide concentration were constructed.
# NMDA NR1-1b S1S2 domain [3] = biological target: T1, NMDA NR1-1b S1S2 domain; experiment: Kd determination by intrinsic tryptophan fluorescence (double reciprocal, Benesi-Hildebrand plot); settings: 5.29 μM NR1-1b S1S2, buffer 3 pH 6.5, 25°C, error at 95% confidence level
# Procedure: as §1
# as §2, with “Protein samples were at a final concentration of 5.29 μM in buffer 3 (10 mM MES, pH 6.5, 25 mM NaCl, 1 mM glycine). All” for “All”
# A double reciprocal plot was used to determine Kd, which derives from the Benesi-Hildebrand relationship, provided there is a 1 : 1 binding stoichiometry. […] When 1/ΔF is plotted against 1/[L], a linear relationship exists. The intercept on the x-axis is − K d.. […]
# NMDA NR1-1b S1S2 domain [4] = biological target: T1, NMDA NR1-1b S1S2 domain; experiment: Extrinsic ANS fluorescence; settings: ANS 1 : 1 with 5.29 μM NR1-1b S1S2, excitation 380 nm; drug concentrations as in Figure 4
# Procedure: Extrinsic fluorescence studies were performed in a Cary Ec-lipse fluorometer at 25°C. All emission scans were acquired from 400 to 600 nm after excitation at 380 nm with 20 nm slit widths for emission and excitation in a 10 mm-path-length cell. Before data acquisition, samples were incubated for thirty seconds in the sample holder at 25°C. Blanks were collected both for the antidepressants and the NR1-1b S1S2 domain. Three emission spectra of identicallyprepared samples were averaged for each plot. 8-Anilino-1-naphthalenesulfonic acid (ANS, TCI America), in a 1 : 1 molar ratio, was added to 5.29 μM of the NR1-1b S1S2 domain premixed with antidepressant (at final concentrations as above for intrinsic quenching studies in addition to the SSRIs fluoxetine (8.62 μM) and fluvoxamine (2.81 mM) and the SNRI venlafaxine (29.07 μM)). As with all intrinsic assays, total methanol concentration was kept at 1.8%. Plots of intensity versus wavelength were constructed from averaged emission spectra.
Structure (SMILES),Binding to NR1-1b S1S2 by intrinsic tryptophan fluorescence (NMDA NR1-1b S1S2 domain [1]),λ max of the NR1-1b drug bound complex (NMDA NR1-1b S1S2 domain [1]) [nm],K sv (NMDA NR1-1b S1S2 domain [2]) [M⁻¹],Kd (NMDA NR1-1b S1S2 domain [3]) [µM],ANS emission spectrum of the NR1-1b S1S2 complex versus ANS bound to apo S1S2 (binding) (NMDA NR1-1b S1S2 domain [4]),λ max of the NR1-1b drug bound complex (NMDA NR1-1b S1S2 domain [1]; listed as Maprotiline) [nm],Change of tryptophan fluorescence emission upon binding (NMDA NR1-1b S1S2 domain [1]; intensity versus apo NR1-1b S1S2),Binding to NR1-1b S1S2 in intrinsic and extrinsic fluorescence assays (NMDA NR1-1b S1S2 domain [1]),Binding to NR1-1b S1S2 in intrinsic and extrinsic fluorescence assays (NMDA NR1-1b S1S2 domain [1]; listed as Citalopram)
CNCCC(Oc1ccc(C(F)(F)F)cc1)c1ccccc1 (centres unmarked) [fluoxetine],neither of which showed binding,–,–,–,confirmed the binding,–,–,–,–
CN(C)CCCC1(c2ccc(F)cc2)OCc2cc(C#N)ccc21 (centres unmarked) [citalopram],did not,–,–,–,–,–,–,no binding,no evidence of binding
Fc1ccc([C@@H]2CCNC[C@H]2COc2ccc3c(c2)OCO3)cc1 [paroxetine],binding,328.3,3.06,–,significantly different,–,–,–,–
COc1ccc(C(CN(C)C)C2(O)CCCCC2)cc1 (centres unmarked) [venlafaxine],did not; also recorded: neither of which showed binding,–,–,–,confirmed the binding,–,–,–,–

# Second part, the compound after the results:
Binding to NR1-1b S1S2 by intrinsic tryptophan fluorescence (NMDA NR1-1b S1S2 domain [1]),λ max of the NR1-1b drug bound complex (NMDA NR1-1b S1S2 domain [1]) [nm],K sv (NMDA NR1-1b S1S2 domain [2]) [M⁻¹],Kd (NMDA NR1-1b S1S2 domain [3]) [µM],ANS emission spectrum of the NR1-1b S1S2 complex versus ANS bound to apo S1S2 (binding) (NMDA NR1-1b S1S2 domain [4]),λ max of the NR1-1b drug bound complex (NMDA NR1-1b S1S2 domain [1]; listed as Maprotiline) [nm],Change of tryptophan fluorescence emission upon binding (NMDA NR1-1b S1S2 domain [1]; intensity versus apo NR1-1b S1S2),Binding to NR1-1b S1S2 in intrinsic and extrinsic fluorescence assays (NMDA NR1-1b S1S2 domain [1]),Binding to NR1-1b S1S2 in intrinsic and extrinsic fluorescence assays (NMDA NR1-1b S1S2 domain [1]; listed as Citalopram),Structure (SMILES)
binding,326.77,2.67,–,–,–,–,–,–,CNCCCN1c2ccccc2CCc2ccccc21 [desipramine]
binding,327.27,3.02,1090 ± 240,significantly different,–,–,–,–,CC(CN(C)C)CN1c2ccccc2CCc2ccccc21 (centres unmarked) [trimipramine]
binding,322.04 ± 1.83,5.92,–,significantly different,322.04,"increases, rather than quenches",–,–,CNCCCC12CCC(c3ccccc31)c1ccccc12 [maprotiline]
binding,328.57,3.77,–,significantly different,–,–,–,–,COCCCC/C(=N\OCCN)c1ccc(C(F)(F)F)cc1 [fluvoxamine]
